± gives the expanded uncertainty stated by the source.
Assay: xn = mol fraction of the nth substance listed
Details: 101 kPa, Liquid; for speed of sound: Frequency=3 MHz, Sing-around technique in a fixed-path interferometer; for mass density: Vibrating tube method

O=C1CCCN1 [2-pyrrolidinone] + ClC(Cl)Cl
Details | mass density [kg/m3] | speed of sound [m/s]
293.15 K, x1 = 0.1002 | 1457.64 ± 0.56 | 1033.4 ± 0.82
293.15 K, x1 = 0.199 | 1424.67 ± 0.55 | 1074.6 ± 0.81
293.15 K, x1 = 0.3019 | 1388.18 ± 0.54 | 1124.8 ± 0.82
293.15 K, x1 = 0.4027 | 1351 ± 0.54 | 1179 ± 0.83
293.15 K, x1 = 0.5022 | 1313.31 ± 0.53 | 1238.7 ± 0.85
293.15 K, x1 = 0.697 | 1235.75 ± 0.53 | 1374.5 ± 0.89
293.15 K, x1 = 0.7992 | 1194.43 ± 0.52 | 1457.3 ± 0.91
293.15 K, x1 = 0.9 | 1152.99 ± 0.52 | 1548.8 ± 0.94
293.15 K, x1 = 1 | 1111.44 ± 0.51 | 1649.3 ± 0.94
293.16 K, x1 = 0.6054 | 1272.91 ± 0.53 | 1307.2 ± 0.86
295.15 K, x1 = 0.199 | 1421.54 ± 0.55 | –
295.15 K, x1 = 0.3019 | 1385.33 ± 0.55 | –
295.15 K, x1 = 0.4027 | 1348.4 ± 0.54 | –
295.15 K, x1 = 0.5022 | 1310.93 ± 0.53 | –
295.15 K, x1 = 0.6054 | 1270.72 ± 0.53 | –
295.15 K, x1 = 0.697 | 1233.71 ± 0.52 | –
295.15 K, x1 = 0.7992 | 1192.54 ± 0.52 | –
295.15 K, x1 = 0.9 | 1151.23 ± 0.52 | –
298.15 K, x1 = 0.1002 | 1449.07 ± 0.56 | 1017.4 ± 0.78
298.15 K, x1 = 0.199 | 1416.87 ± 0.55 | 1059.6 ± 0.79
298.15 K, x1 = 0.3019 | 1381.1 ± 0.55 | 1109.8 ± 0.8
298.15 K, x1 = 0.4027 | 1344.53 ± 0.54 | 1164.5 ± 0.81
298.15 K, x1 = 0.5022 | 1307.38 ± 0.53 | 1223.7 ± 0.83
298.15 K, x1 = 0.6054 | 1267.47 ± 0.53 | 1292.9 ± 0.84
298.15 K, x1 = 0.697 | 1230.66 ± 0.52 | 1358.9 ± 0.87
298.15 K, x1 = 1 | 1107.35 ± 0.51 | 1632.9 ± 0.94
298.16 K, x1 = 0.7992 | 1189.72 ± 0.52 | 1442.2 ± 0.89
298.16 K, x1 = 0.9 | 1148.6 ± 0.52 | 1533.3 ± 0.91
301.15 K, x1 = 1 | 1104.88 ± 0.51 | –
303.15 K, x1 = 0.1002 | 1440.46 ± 0.56 | 1001.5 ± 0.78
303.15 K, x1 = 0.199 | 1409.07 ± 0.55 | 1044 ± 0.79
303.15 K, x1 = 0.3019 | 1374 ± 0.55 | 1094.7 ± 0.8
303.15 K, x1 = 0.4027 | 1338.05 ± 0.54 | 1149.5 ± 0.81
303.15 K, x1 = 0.5022 | 1301.43 ± 0.53 | 1208.6 ± 0.82
303.15 K, x1 = 0.697 | 1225.58 ± 0.52 | 1343.1 ± 0.86
303.15 K, x1 = 0.7992 | 1184.99 ± 0.52 | 1426.5 ± 0.88
303.15 K, x1 = 0.9 | 1144.21 ± 0.52 | 1517.3 ± 0.91
303.15 K, x1 = 1 | 1103.26 ± 0.51 | 1616.7 ± 0.93
303.16 K, x1 = 0.6054 | 1262 ± 0.53 | 1278.2 ± 0.84
308.15 K, x1 = 0.1002 | 1431.81 ± 0.57 | 985.52 ± 0.75
308.15 K, x1 = 0.199 | 1401.22 ± 0.56 | 1028.3 ± 0.77
308.15 K, x1 = 0.4027 | 1331.55 ± 0.54 | 1134.4 ± 0.79
308.15 K, x1 = 0.5022 | 1295.47 ± 0.54 | 1193.5 ± 0.8
308.15 K, x1 = 0.6054 | 1256.52 ± 0.53 | 1263.1 ± 0.83
308.15 K, x1 = 0.697 | 1220.48 ± 0.52 | 1327.1 ± 0.83
308.15 K, x1 = 0.7992 | 1180.28 ± 0.52 | 1411 ± 0.86
308.15 K, x1 = 0.9 | 1139.82 ± 0.52 | 1501.5 ± 0.89
308.15 K, x1 = 1 | 1099.17 ± 0.51 | 1600.5 ± 0.93
308.16 K, x1 = 0.3019 | 1366.88 ± 0.55 | 1079.5 ± 0.78
313.15 K, x1 = 1 | 1095.08 ± 1.1 | 1584.5 ± 1.8
318.16 K, x1 = 1 | 1091 ± 0.51 | 1568.6 ± 0.92
323.16 K, x1 = 1 | 1086.92 ± 0.51 | 1552.8 ± 0.91

ClC(Cl)Cl [trichloromethane] + CN1CCCC1=O
Details | mass density [kg/m3] | speed of sound [m/s]
293.14 K, x2 = 0.1079 | 1437.79 ± 0.56 | 1051.6 ± 0.8
293.15 K, x2 = 0 | 1488.55 ± 0.57 | 1000.9 ± 0.78
293.15 K, x2 = 0.1061 | 1438.96 ± 0.56 | 1050 ± 0.79
293.15 K, x2 = 0.2054 | 1390.74 ± 0.55 | 1098.6 ± 0.81
293.15 K, x2 = 0.2994 | 1345.24 ± 0.54 | 1146 ± 0.81
293.15 K, x2 = 0.4032 | 1294.06 ± 0.54 | 1198.4 ± 0.84
293.15 K, x2 = 0.4961 | 1249.81 ± 0.53 | 1248.4 ± 0.85
293.15 K, x2 = 0.6006 | 1201.33 ± 0.53 | 1307.8 ± 0.87
293.15 K, x2 = 0.6854 | 1163.12 ± 0.52 | 1359.8 ± 0.88
293.15 K, x2 = 0.7986 | 1114.37 ± 0.52 | 1430.8 ± 0.92
298.14 K, x2 = 0.1079 | 1429.34 ± 0.56 | 1034.9 ± 0.79
298.14 K, x2 = 0.2994 | 1338.24 ± 0.54 | 1130.2 ± 0.81
298.14 K, x2 = 0.7986 | 1109.43 ± 0.52 | 1413 ± 0.9
298.15 K, x2 = 0 | 1479.07 ± 0.57 | 984.33 ± 0.78
298.15 K, x2 = 0.2054 | 1383.07 ± 0.55 | 1082.1 ± 0.81
298.15 K, x2 = 0.4032 | 1287.66 ± 0.54 | 1181.9 ± 0.83
298.15 K, x2 = 0.4961 | 1243.85 ± 0.53 | 1231.9 ± 0.84
298.15 K, x2 = 0.6006 | 1195.78 ± 0.52 | 1290.7 ± 0.86
298.15 K, x2 = 0.6854 | 1157.85 ± 0.52 | 1342.1 ± 0.88
298.16 K, x2 = 0.1061 | 1430.5 ± 0.56 | 1033.6 ± 0.79
303.14 K, x2 = 0.1079 | 1420.85 ± 0.56 | 1018.3 ± 0.8
303.14 K, x2 = 0.2994 | 1331.2 ± 0.54 | 1114.1 ± 0.81
303.14 K, x2 = 0.7986 | 1104.48 ± 0.52 | 1395.1 ± 0.89
303.15 K, x2 = 0.1061 | 1422 ± 0.56 | 1016.3 ± 0.8
303.15 K, x2 = 0.2054 | 1375.36 ± 0.55 | 1065.2 ± 0.8
303.15 K, x2 = 0.4032 | 1281.24 ± 0.54 | 1165.2 ± 0.83
303.15 K, x2 = 0.4961 | 1237.89 ± 0.53 | 1215.2 ± 0.84
303.15 K, x2 = 0.6006 | 1190.22 ± 0.52 | 1273.5 ± 0.86
303.15 K, x2 = 0.6854 | 1152.57 ± 0.52 | 1324.2 ± 0.87
303.16 K, x2 = 0 | 1469.52 ± 0.57 | 967.53 ± 0.78
308.14 K, x2 = 0.1079 | 1412.32 ± 0.56 | 1001.8 ± 0.78
308.14 K, x2 = 0.2994 | 1324.14 ± 0.54 | 1098.1 ± 0.82
308.14 K, x2 = 0.7986 | 1099.52 ± 0.51 | 1377.3 ± 0.88
308.15 K, x2 = 0 | 1459.91 ± 0.57 | 950.62 ± 0.78
308.15 K, x2 = 0.1061 | 1413.45 ± 0.56 | 999.25 ± 0.8
308.15 K, x2 = 0.2054 | 1367.63 ± 0.55 | 1048.3 ± 0.79
308.15 K, x2 = 0.4032 | 1274.79 ± 0.53 | 1148.5 ± 0.81
308.15 K, x2 = 0.4961 | 1231.6 ± 0.53 | 1198.6 ± 0.83
308.15 K, x2 = 0.6006 | 1184.64 ± 0.52 | 1256.3 ± 0.84
308.15 K, x2 = 0.6854 | 1147.28 ± 0.52 | 1306.2 ± 0.86

Source: the NIST ThermoML archive (doi:10.1021/acs.jced.5b00474)
